What was measured:
[1] = tested on: L6-myotubes; assay: Glucose uptake in differentiated L6-myotubes (Biological Example 2); format: cell-based; conditions: glucose uptake; compound at 10 μM relative to isoproterenol at 10 μM; read-out: Biological example 2 (GU)
Description: (§1) Compounds described in publications referenced and incorporated herein were screened in accordance with the procedures outlined in Biological example 2 and Biological example 3.
Differentiated L6-myotubes were serum-starved overnight in medium containing 0.5% fatty-acid free BSA and stimulated with isoprenaline or the test compound, with a final concentration of 1×10^−5 M. After 1 h 40 min the cells were washed with warm glucose free medium or PBS twice and another portion of agonist was added to the glucose free medium. After 20 min the cells were exposed to 50 nM ^3H-2-deoxyglucose for 10 min before washed with ice cold glucose free medium or PBS three times and lysed with 0.2 M NaOH, 400 μL/well, for 1 h at 60° C. The cell lysate was mixed with 4 mL scintillation buffer (Emulsifier Safe, Perkin Elmer) and the radioactivity was detected in a […] (Tri-Carb 4810TR, Perkin Elmer).

[2] = tested on: L6-myotubes; assay: Measurement of intracellular cAMP levels in differentiated L6-myotubes (Biological Example 3); format: cell-based; conditions: 0.25 h, intracellular cAMP; compound at 10 μM relative to isoproterenol at 10 μM
Description: as §1
Differentiated L6-myotubes were serum-starved overnight and stimulated with isoprenaline or the test compound with a final concentration of 1×10^−5 M, for 15 min in stimulation buffer (HBSS supplemented with 1% BSA, 5 mM HEPES and 1 mM IBMX, pH 7.4). The medium was aspirated and 100 μL of 95% EtOH was added to each well of the 24-well plate and cells were kept at −20° C. overnight. The EtOH was allowed to evaporate and 500 μL of lysis buffer (1% BSA, 5 mM HEPES and 0.3% Tween-20, pH 7.4) was added to each well. The plate was kept at −80° C. for 30 min and then at −20° C. until the day of detection when the samples were thawed. Intracellular cAMP levels were detected using an alpha screen cAMP kit (6760635D from Perkin Elmer).

Compound | Emax at 10 µM [1] [%] | Emax at 10 µM [2] [%]
CCCCNC[C@H](O)c1cccc(F)c1F [Compound 77, (R)-2-(butylamino)-1-(2,3-difluorophenyl)-1-ethanol] | > 75 | < 25
CC(C)(C)NC[C@H](O)c1ccccc1F [Compound 78, (R)-2-(tert-butylamino)-1-(o-fluorophenyl)-1-ethanol] | > 75 | 25 to 50
CCCCNC[C@H](O)c1ccccc1F [Compound 79, (R)-2-(butylamino)-1-(o-fluorophenyl)-1-ethanol] | > 75 | < 25
CC(C)(C)NC[C@H](O)c1ccc(F)cc1O [Compound 80, (R)-2-(tert-butylamino)-1-(4-fluoro-2-hydroxyphenyl)-1-ethanol] | 50 to 75 | < 25
CCCCNC[C@H](O)c1ccc(F)cc1O [Compound 81, (R)-2-(butylamino)-1-(4-fluoro-2-hydroxyphenyl)-1-ethanol] | 50 to 75 | < 25
CC1(NC[C@H](O)c2cccc(F)c2)CC1 [Compound 82, (R)-1-(m-fluorophenyl)-2-(1-methylcyclopropylamino)-1-ethanol] | > 75 | < 25
CC1(NC[C@H](O)c2cccc(F)c2)CCC1 [Compound 83, (R)-1-(m-fluorophenyl)-2-(1-methylcyclobutylamino)-1-ethanol] | > 75 | 25 to 50
CC(C)(C)NC[C@H](O)c1ccc(F)c(O)c1 [Compound 84, (R)-2-(tert-butylamino)-1-(4-fluoro-3-hydroxyphenyl)-1-ethanol] | > 75 | 50 to 75
CCCCNC[C@H](O)c1ccc(F)c(O)c1 [Compound 85, (R)-2-(butylamino)-1-(4-fluoro-3-hydroxyphenyl)-1-ethanol] | > 75 | < 25
CC(C)(C)NC[C@H](O)c1cccc(O)c1F [Compound 86, (R)-2-(tert-butylamino)-1-(2-fluoro-3-hydroxyphenyl)-1-ethanol] | 50 to 75 | 50 to 75
CCCCNC[C@H](O)c1cccc(O)c1F [Compound 87, (R)-2-(butylamino)-1-(2-fluoro-3-hydroxyphenyl)-1-ethanol] | > 75 | 25 to 50
CCCCNC[C@H](O)c1cnc(N)nc1 [Compound 89, (R)-1-(2-amino-5-pyrimidinyl)-2-(butylamino)-1-ethanol] | 50 to 75 | < 25
CCCCNC[C@H](O)c1cccc(N)c1F [Compound 90, (R)-1-(3-amino-2-fluorophenyl)-2-(butylamino)-1-ethanol] | 50 to 75 | < 25
CC(C)(C)NC[C@H](O)c1cccc(N)c1F [Compound 91, (R)-1-(3-amino-2-fluorophenyl)-2-(tert-butylamino)-1-ethanol] | > 75 | 25 to 50
CCC[C@H]1CCC[C@H]([C@H](O)c2ccc(F)cc2)N1 [Compound 92] | 25 to 50 | < 25
CCC[C@H]1CCC[C@H]([C@H](O)c2ccccc2F)N1 [Compound 93, (R)-[(2R,6S)-6-propyl-2-piperidyl](o-fluorophenyl)methanol] | 25 to 50 | < 25
CCC[C@@H]1CCC[C@H]([C@H](O)c2ccc(F)cc2)N1 [Compound 94] | 50 to 75 | < 25
CC(C)(C)NC[C@H](O)c1ccc(O)cn1 [Compound 95, 6-[(S)-2-(tert-butylamino)-1-hydroxyethyl]-3-pyridinol] | 50 to 75 | < 25
CC(C)(C)NC[C@H](O)c1ccc(F)cn1 [Compound 96, (S)-2-(tert-butylamino)-1-(5-fluoro-2-pyridyl)-1-ethanol] | 50 to 75 | < 25
CCC[C@@H]1CCC[C@H]([C@H](O)c2ccccc2F)N1 [Compound 97, (R)-[(2R,6R)-6-propyl-2-piperidyl](o-fluorophenyl)methanol] | 50 to 75 | < 25
Cn1ccc([C@@H](O)CNC(C)(C)C)cc1=O [Compound 98, 4-[(R)-2-(tert-butylamino)-1-hydroxyethyl]-1-methyl-2(1H)-pyridinone] | > 75 | < 25
CC(C)(C)NC[C@H](O)c1cncc(F)c1 [Compound 99, (R)-2-(tert-butylamino)-1-(5-fluoro-3-pyridyl)-1-ethanol] | > 75 | 25 to 50
CC(C)(C)NC[C@H](O)c1cncc(O)c1 [Compound 100, 5-[(R)-2-(tert-butylamino)-1-hydroxyethyl]-3-pyridinol] | > 75 | < 25

Compound | Emax at 10 µM [1] [%] | Emax at 10 µM [2] [%]
CC1(C)CCC[C@H]([C@@H](O)c2cccc(F)c2)N1 [Compound 101] | 25 to 50 | < 25
CC1(C)CCC[C@H]([C@H](O)c2cccc(F)c2)N1 [Compound 102] | 50 to 75 | < 25
CC1(C)CCC[C@H]([C@@H](O)c2cccc(O)c2)N1 [Compound 103] | 25 to 50 | < 25
CC1(C)CCC[C@H]([C@H](O)c2cccc(O)c2)N1 [Compound 104, (R)-[(R)-6,6-dimethyl-2-piperidyl](m-hydroxyphenyl)methanol] | 25 to 50 | < 25
CCC[C@H]1CCC[C@H]([C@@H](O)c2ccc(F)cc2)N1 [Compound 105] | 25 to 50 | < 25
CCC[C@H]1CCC[C@H]([C@@H](O)c2ccccc2F)N1 [Compound 106, (S)-[(2R,6S)-6-propyl-2-piperidyl](o-fluorophenyl)methanol] | 25 to 50 | < 25
CCC[C@@H]1CCC[C@H]([C@@H](O)c2ccccc2F)N1 [Compound 107, (S)-[(2R,6R)-6-propyl-2-piperidyl](o-fluorophenyl)methanol] | 25 to 50 | < 25
CC(C)(C)NC[C@H](O)c1ccncc1F [Compound 108, (R)-2-(tert-butylamino)-1-(3-fluoro-4-pyridyl)-1-ethanol] | 25 to 50 | < 25
CC1(C)CC[C@H]([C@@H](O)c2cccc(F)c2)N1 [Compound 109, (S)-[(R)-5,5-dimethyl-2-pyrrolidinyl](m-fluorophenyl)methanol] | 25 to 50 | < 25
CC1(C)CC[C@H]([C@H](O)c2cccc(F)c2)N1 [Compound 110] | > 75 | < 25
CC1(C)CC[C@H]([C@@H](O)c2cccc(O)c2)N1 [Compound 111, m-{(S)-[(R)-5,5-dimethyl-2-pyrrolidinyl] hydroxymethyl}phenol] | 50 to 75 | < 25
CC1(C)CC[C@H]([C@H](O)c2cccc(O)c2)N1 [Compound 112, m-{(R)-[(R)-5,5-dimethyl-2-pyrrolidinyl] hydroxymethyl}phenol] | > 75 | < 25
CCC[C@@H]1CCC[C@@H]([C@@H](O)c2cccc(O)c2)N1 [Compound 113] | 50 to 75 | < 25
CCC[C@@H]1CCC[C@@H]([C@@H](O)c2cccc(Cl)c2)N1 [Compound 114] | 25 to 50 | < 25
CCC[C@@H]1CCC[C@@H]([C@H](O)c2cccc(Cl)c2)N1 [Compound 115] | > 75 | < 25
CCC[C@@H]1CCC[C@@H]([C@H](O)c2cccc(F)c2)N1 [Compound 116] | 25 to 50 | < 25
CC(C)(C)CNC[C@H](O)c1cccc(F)c1 [Compound 117, (R)-1-(m-fluorophenyl)-2-(neopentylamino)-1-ethanol] | 25 to 50 | < 25
O[C@@H](CNC1(C(F)(F)F)CC1)c1cccc(F)c1 [Compound 118, (R)-1-(m-fluorophenyl)-2-[1-(trifluoromethyl)cyclopropylamino]-1-ethanol] | 50 to 75 | < 25
CCC[C@H]1CCC[C@@H]([C@@H](O)c2cccc(F)c2)N1 [Compound 119] | 25 to 50 | < 25
CCC[C@H]1CCC[C@@H]([C@H](O)c2cccc(F)c2)N1 [Compound 120] | 50 to 75 | < 25
CCC[C@H]1CCC[C@@H]([C@@H](O)c2cccc(O)c2)N1 [Compound 121] | > 75 | < 25
CCC[C@H]1CCC[C@@H]([C@H](O)c2cccc(O)c2)N1 [Compound 122] | 50 to 75 | < 25
CCC[C@H]1CCC[C@@H]([C@H](O)c2cccc(Cl)c2)N1 [Compound 123] | 25 to 50 | < 25
